Converted amounts (≈) assume the structure as drawn. Starred links: 1 amine or outer side, 2 acyl side, 3 side chain; linkers in the order of their positions; H or OH if unused. Positions of bridges follow the written chain, without caps; N, C: chain ends. Non-standard residues stand in square brackets, D forms with d. Residues, ends and D or L forms follow the SMILES beside them. *: point of attachment. Orn(4R-OH,5R-OH) = O=C([C@H](C[C@@H](O)[C@@H](O)N[*:3])N[*:1])[*:2]; hTyr(3S-OH,4S-OH) = N[C@H](C(=O)O)[C@H](O)[C@@H](O)c1ccc(O)cc1; Pro(3S-OH,4S-Me) = C[C@H]1CN[C@H](C(=O)O)[C@H]1O; Benzoyl(4-octyloxy) = CCCCCCCCOc1ccc(C(=O)*)cc1; hTyr = N[C@@H](CCc1ccc(O)cc1)C(=O)O; Hyp = O=C(O)[C@@H]1C[C@@H](O)CN1; Orn = NCCC[C@H](N)C(=O)O
Columns and labels:
Candida albicans [1] = experiment: Antifungal activity on Candida albicans MY1028.; assay type: functional
Candida tropicalis = experiment: Antifungal activity on Candida tropicalis MY101; assay type: functional
Candida parapsilosis = experiment: Antifungal activity on Candida parapsilosis MY1010; assay type: functional; conditions: Lodderomyces parapsilosis
Candida albicans [2] = experiment: Antifungal activity on Candida albicans MY1208.; assay type: functional
Candida albicans [3] = experiment: Antifungal activity on Candida albicans MY1055.; assay type: functional
Candida albicans [4] = experiment: Concentration inhibiting Candida beta-1,3-glucan synthesis was determined in a Candida albicans cell culture; assay type: functional, organism-based

SMILES	MFC (Candida albicans [1]) [µg/mL]	MFC (Candida tropicalis) [µg/mL]	MFC (Candida parapsilosis) [µg/mL]	MFC (Candida albicans [2]) [µg/mL]	MFC (Candida albicans [3]) [µg/mL]	IC50 (Candida albicans [4]) [µM]
CCCCCCCCOc1ccc(C(=O)N[C@H]2CCCNC(=O)[C@@H]3[C@@H](O)[C@@H](C)CN3C(=O)[C@H]([C@@H](C)O)NC(=O)[C@H](CCc3ccc(O)cc3)NC(=O)[C@@H]3C[C@@H](O)CN3C(=O)[C@H]([C@@H](C)O)NC2=O)cc1 ({Benzoyl(4-octyloxy)}-[Orn]T[Hyp][hTyr]T[Pro(3S-OH,4S-Me)]; lactam 1-C)	2 (≈ 2.07 µM)	1 (≈ 1.04 µM)	8 (≈ 8.28 µM)	2 (≈ 2.07 µM)	1 (≈ 1.04 µM)	3
CCCCCCCCOc1ccc(C(=O)N[C@H]2CCCNC(=O)[C@@H]3CCCN3C(=O)[C@H]([C@@H](C)O)NC(=O)[C@H](Cc3ccc(O)cc3)NC(=O)[C@@H]3C[C@@H](O)CN3C(=O)[C@H]([C@@H](C)O)NC2=O)cc1 ({Benzoyl(4-octyloxy)}-[Orn]T[Hyp]YTP; lactam 1-C)	> 128	> 128	> 128	> 128	–	> 10
CCCCCCCCOc1ccc(C(=O)N[C@H]2CCCNC(=O)[C@@H]3C[C@@H](O)CN3C(=O)[C@H]([C@@H](C)O)NC(=O)[C@H](CCc3ccc(O)cc3)NC(=O)[C@@H]3C[C@@H](O)CN3C(=O)[C@H]([C@@H](C)O)NC2=O)cc1 ({Benzoyl(4-octyloxy)}-[Orn]T[Hyp][hTyr]T[Hyp]; lactam 1-C)	8 (≈ 8.4 µM)	8 (≈ 8.4 µM)	> 128	8 (≈ 8.4 µM)	8 (≈ 8.4 µM)	10
CCCCCCCCOc1ccc(C(=O)N[C@H]2C[C@@H](O)[C@@H](O)NC(=O)[C@@H]3[C@@H](O)[C@@H](C)CN3C(=O)[C@H]([C@@H](C)O)NC(=O)[C@H]([C@H](O)[C@@H](O)c3ccc(O)cc3)NC(=O)[C@@H]3C[C@@H](O)CN3C(=O)[C@H]([C@@H](C)O)NC2=O)cc1 [CILOFUNGIN] ({Benzoyl(4-octyloxy)}-[Orn(4R-OH,5R-OH)]T[Hyp][hTyr(3S-OH,4S-OH)]T[Pro(3S-OH,4S-Me)]; lactam 1-C)	0.5 (≈ 0.485 µM)	0.5 (≈ 0.485 µM)	8 (≈ 7.77 µM)	2 (≈ 1.94 µM)	0.5 (≈ 0.485 µM)	1
CCCCCCCCOc1ccc(C(=O)N[C@H]2CCCNC(=O)[C@@H]3[C@@H](O)[C@@H](C)CN3C(=O)[C@H]([C@@H](C)O)NC(=O)[C@H](Cc3ccc(O)cc3)NC(=O)[C@@H]3C[C@@H](O)CN3C(=O)[C@H]([C@@H](C)O)NC2=O)cc1 ({Benzoyl(4-octyloxy)}-[Orn]T[Hyp]YT[Pro(3S-OH,4S-Me)]; lactam 1-C)	> 128	> 128	> 128	> 128	> 128	–
C[C@@H](O)[C@@H]1NC(=O)[C@H](CCc2ccc(O)cc2)NC(=O)[C@@H]2C[C@@H](O)CN2C(=O)[C@H]([C@@H](C)O)NC(=O)[C@@H](N)CCCNC(=O)[C@H]([C@@H](C)O)NC1=O (H-[Orn]T[Hyp][hTyr]TT; lactam 1-C)	8 (≈ 11.3 µM)	4 (≈ 5.65 µM)	> 128	8 (≈ 11.3 µM)	8 (≈ 11.3 µM)	> 10
CCCCCCCCOc1ccc(C(=O)N[C@H]2CCCNC(=O)[C@@H]3C[C@@H](O)CN3C(=O)[C@H]([C@@H](C)O)NC(=O)[C@H](Cc3ccc(O)cc3)NC(=O)[C@@H]3CCCN3C(=O)[C@H]([C@@H](C)O)NC2=O)cc1 ({Benzoyl(4-octyloxy)}-[Orn]TPYT[Hyp]; lactam 1-C)	> 128	> 128	> 128	> 128	> 128	> 10
CCCCCCCCOc1ccc(C(=O)N[C@H]2CCCNC(=O)[C@@H]3CCCN3C(=O)[C@H]([C@@H](C)O)NC(=O)[C@H](Cc3ccc(O)cc3)NC(=O)[C@@H]3CCCN3C(=O)[C@H]([C@@H](C)O)NC2=O)cc1 ({Benzoyl(4-octyloxy)}-[Orn]TPYTP; lactam 1-C)	> 64	> 64	–	> 64	> 64	> 10
CCCCCCCCOc1ccc(C(=O)N[C@H]2CCCNC(=O)[C@@H]3CCCN3C(=O)[C@H]([C@@H](C)O)NC(=O)[C@H](CCc3ccc(O)cc3)NC(=O)[C@@H]3C[C@@H](O)CN3C(=O)[C@H]([C@@H](C)O)NC2=O)cc1 ({Benzoyl(4-octyloxy)}-[Orn]T[Hyp][hTyr]TP; lactam 1-C)	4 (≈ 4.27 µM)	0.25 (≈ 0.267 µM)	8 (≈ 8.55 µM)	4 (≈ 4.27 µM)	8 (≈ 8.55 µM)	10
CCCCCCCCOc1ccc(C(=O)N[C@H]2CCCNC(=O)[C@@H]3CCCN3C(=O)[C@H]([C@@H](C)O)NC(=O)[C@H](CCc3ccc(O)cc3)NC(=O)[C@@H]3CCCN3C(=O)[C@H]([C@@H](C)O)NC2=O)cc1 ({Benzoyl(4-octyloxy)}-[Orn]TP[hTyr]TP; lactam 1-C)	–	4 (≈ 4.35 µM)	> 128	4 (≈ 4.35 µM)	4 (≈ 4.35 µM)	> 10
CCCCCCCCOc1ccc(C(=O)N[C@H]2CCCNC(=O)[C@@H]3C[C@@H](O)CN3C(=O)[C@H]([C@@H](C)O)NC(=O)[C@H](Cc3ccc(O)cc3)NC(=O)[C@@H]3C[C@@H](O)CN3C(=O)[C@H]([C@@H](C)O)NC2=O)cc1 ({Benzoyl(4-octyloxy)}-[Orn]T[Hyp]YT[Hyp]; lactam 1-C)	> 128	> 128	> 128	> 128	> 128	> 10

Reference: ChEMBL document CHEMBL1125503, “Preparation and structure-activity relationships of simplified analogues of the antifungal agent cilofungin: a total synthesis approach” (J Med Chem, 1992)
